Source: patent US6737383B1, “Herbicidal oxadiazolidines” (priority 1999, dated 2004)

Key:
pigweed = test: Test B pre/postemergence pigweed; assay type: in vivo, Amaranthus retroflexus
Method in brief: (§1)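 Test chemicals in a non-phytotoxic solvent mixture with surfactant were sprayed preemergence onto planted seeds and postemergence onto plants 2 to 18 cm tall (1- to 4-leaf stage). After twelve to sixteen days in a greenhouse, injury was visually rated against untreated controls from 0 (no effect) to 10 (complete control).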

sugar beet = test: Test B pre/postemergence sugar beet; assay type: in vivo, Beta vulgaris
Method in brief: as §1

cocklebur = test: Test B pre/postemergence cocklebur; assay type: in vivo, Xanthium strumarium
Method in brief: as §1

crabgrass = test: Test B pre/postemergence crabgrass; assay type: in vivo, Digitaria sanguinalis
Method in brief: as §1

morningglory = test: Test B pre/postemergence morningglory; assay type: in vivo, Ipomoea hederacea
Method in brief: as §1

surinam grass = test: Test B pre/postemergence surinam grass; assay type: in vivo, Brachiaria decumbens
Method in brief: as §1

corn = test: Test B pre/postemergence corn; assay type: in vivo, Zea mays
Method in brief: as §1

velvetleaf = test: Test B pre/postemergence velvetleaf; assay type: in vivo, Abutilon theophrasti
Method in brief: as §1

blackgrass = test: Test B pre/postemergence blackgrass; assay type: in vivo, Alopecurus myosuroides
Method in brief: as §1

rape = test: Test B pre/postemergence rape; assay type: in vivo, Brassica napus
Method in brief: as §1

purple nutsedge = test: Test B pre/postemergence purple nutsedge; assay type: in vivo, Cyperus rotundus
Method in brief: as §1

giant foxtail = test: Test B pre/postemergence giant foxtail; assay type: in vivo, Setaria faberii
Method in brief: as §1

wild oat = test: Test B pre/postemergence wild oat; assay type: in vivo, Avena fatua
Method in brief: as §1

soybean = test: Test B pre/postemergence soybean; assay type: in vivo, Glycine max
Method in brief: as §1

wheat = test: Test B pre/postemergence wheat; assay type: in vivo, Triticum aestivum
Method in brief: as §1

bedstraw = test: Test B pre/postemergence bedstraw; assay type: in vivo, Galium aparine; details: for Plant response rating, Bedstraw: scale of 0 to 10 where 0 is no effect and 10 is complete control
Method in brief: as §1

[1] = Postemergence, Rate 125 g/ha, scale 0 to 10, 0 is no effect, 10 is complete control
[2] = Postemergence, Rate 500 g/ha, scale 0 to 10, 0 is no effect, 10 is complete control
[3] = Preemergence, Rate 62 g/ha, scale of 0 to 10 where 0 is no effect and 10 is complete control
[4] = Preemergence, Rate 125 g/ha, scale 0 to 10, 0 is no effect, 10 is complete control
[5] = Preemergence, Rate 500 g/ha, scale of 0 to 10 where 0 is no effect and 10 is complete control
[6] = Rate 62 g/ha, Postemergence, scale 0 to 10, 0 no effect, 10 complete control
[7] = Postemergence, Rate 250 g/ha, scale 0 to 10
[8] = Preemergence, Rate 250 g/ha, scale 0 to 10, 0 is no effect, 10 is complete control
[9] = Preemergence, Rate 500 g/ha, scale 0 to 10, 0 is no effect, 10 is complete control

## CC(C)N(C(=O)n1oc(=O)n(CC2=CCCN(C)C2)c1=O)c1ccccc1 [Compound 497]
pigweed; [1]
  Redroot pigweed plant response rating: 0
pigweed; [2]
  Plant response rating, Redroot pigweed: 0
pigweed; [3]
  Plant response rating, Redroot pigweed: 0
pigweed; [4]
  Redroot pigweed plant response rating: 0
pigweed; [5]
  Redroot pigweed plant response rating: 0
pigweed; [6]
  Redroot pigweed plant response rating: 0
Sugar beet; [1]
  Sugarbeets plant response rating: 0
Sugar beet; [2]
  Plant response rating, Sugarbeets: 0
Sugar beet; [3]
  Plant response rating, Sugarbeets: 0
Sugar beet; [4]
  Sugarbeets plant response rating: 0
Sugar beet; [5]
  Sugarbeets plant response rating: 0
Sugar beet; [6]
  Sugarbeets plant response rating: 0
cocklebur; [1]
  Cocklebur plant response rating: 0
cocklebur; [7]
  Cocklebur plant response rating: 0
cocklebur; [2]
  Plant response rating, Cocklebur: 0
cocklebur; [3]
  Plant response rating, Cocklebur: 0
cocklebur; [4]
  Cocklebur plant response rating: 0
cocklebur; [8]
  Cocklebur plant response rating: 0
cocklebur; [5]
  Cocklebur plant response rating: 0
cocklebur; [6]
  Cocklebur plant response rating: 0
crabgrass; [1]
  Crabgrass plant response rating: 0
crabgrass; [7]
  Crabgrass plant response rating: 0
crabgrass; [2]
  Plant response rating, Crabgrass: 0
crabgrass; [3]
  Plant response rating, Crabgrass: 0
crabgrass; [4]
  Crabgrass plant response rating: 0
crabgrass; [5]
  Crabgrass plant response rating: 0
crabgrass; [6]
  Crabgrass plant response rating: 0
morningglory; [1]
  Morningglory plant response rating: 0
morningglory; [2]
  Plant response rating, Morningglory: 0
morningglory; [3]
  Plant response rating, Morningglory: 0
morningglory; [4]
  Morningglory plant response rating: 0
morningglory; [5]
  Morningglory plant response rating: 0
morningglory; [6]
  Morningglory plant response rating: 0
Surinam grass; [1]
  B. signalgrass plant response rating: 0
Surinam grass; Postemergence, Rate 250 g/ha, scale 0 to 10, 0 no effect, 10 complete control
  B. signalgrass plant response rating: 0
Surinam grass; [2]
  Plant response rating, B. signalgrass: 0
Surinam grass; [3]
  Plant response rating, B. signalgrass: 0
Surinam grass; [4]
  B. signalgrass plant response rating: 0
Surinam grass; [8]
  B. signalgrass plant response rating: 0
Surinam grass; [9]
  B. signalgrass plant response rating: 0
Surinam grass; [6]
  B. signalgrass plant response rating: 0
corn; [1]
  Corn plant response rating: 0
corn; [7]
  Corn plant response rating: 0
corn; [2]
  Plant response rating, Corn: 0
corn; [3]
  Plant response rating, Corn: 0
corn; [4]
  Corn plant response rating: 0
corn; [5]
  Corn plant response rating: 0
corn; [6]
  Corn plant response rating: 0
velvetleaf; [1]
  Velvetleaf plant response rating: 0
velvetleaf; [2]
  Plant response rating, Velvetleaf: 0
velvetleaf; [3]
  Plant response rating, Velvetleaf: 0
velvetleaf; [4]
  Velvetleaf plant response rating: 0
velvetleaf; [5]
  Velvetleaf plant response rating: 0
velvetleaf; [6]
  Velvetleaf plant response rating: 0
blackgrass; [1]
  Blackgrass plant response rating: 0
blackgrass; [7]
  Blackgrass plant response rating: 0
blackgrass; [2]
  Plant response rating, Blackgrass: 0
blackgrass; [3]
  Plant response rating, Blackgrass: 0
blackgrass; [4]
  Blackgrass plant response rating: 0
blackgrass; [8]
  Blackgrass plant response rating: 0
blackgrass; [5]
  Blackgrass plant response rating: 0
blackgrass; [6]
  Blackgrass plant response rating: 0
rape; [1]
  Rape plant response rating: 0
rape; [2]
  Plant response rating, Rape: 0
rape; [3]
  Plant response rating, Rape: 0
rape; [4]
  Rape plant response rating: 0
rape; [5]
  Rape plant response rating: 0
rape; [6]
  Rape plant response rating: 0
Purple nutsedge; [1]
  Nutsedge plant response rating: 0
Purple nutsedge; [2]
  Plant response rating, Nutsedge: 0
Purple nutsedge; [3]
  Plant response rating, Nutsedge: 0
Purple nutsedge; [4]
  Nutsedge plant response rating: 0
Purple nutsedge; [5]
  Nutsedge plant response rating: 0
Purple nutsedge; [6]
  Nutsedge plant response rating: 0
Giant foxtail; [1]
  Giant foxtail plant response rating: 0
Giant foxtail; [2]
  Plant response rating, Giant foxtail: 0
Giant foxtail; [3]
  Plant response rating, Giant foxtail: 0
Giant foxtail; [4]
  Giant foxtail plant response rating: 0
Giant foxtail; [5]
  Giant foxtail plant response rating: 0
Giant foxtail; [6]
  Giant foxtail plant response rating: 0
Wild oat; [1]
  Wild oats plant response rating: 0
Wild oat; [2]
  Plant response rating, Wild oats: 0
Wild oat; [3]
  Plant response rating, Wild oats: 0
Wild oat; [4]
  Wild oats plant response rating: 0
Wild oat; [5]
  Wild oats plant response rating: 0
Wild oat; [6]
  Wild oats plant response rating: 0
soybean; [1]
  Soybean plant response rating: 1
soybean; [2]
  Plant response rating, Soybean: 2
soybean; [3]
  Plant response rating, Soybean: 0
soybean; [4]
  Soybean plant response rating: 0
soybean; [5]
  Soybean plant response rating: 0
soybean; [6]
  Soybean plant response rating: 0
wheat; [1]
  Wheat plant response rating: 0
wheat; [2]
  Plant response rating, Wheat: 0
wheat; [3]
  Plant response rating, Wheat: 0
wheat; [4]
  Wheat plant response rating: 0
wheat; [5]
  Wheat plant response rating: 0
wheat; [6]
  Wheat plant response rating: 0
bedstraw; [1]
  Bedstraw plant response rating: 0
bedstraw; Preemergence, Rate 62 g/ha
  Plant response rating, Bedstraw: 0
bedstraw; [8]
  Bedstraw plant response rating: 0
bedstraw; [9]
  Bedstraw plant response rating: 0
bedstraw; [6]
  Bedstraw plant response rating: 0

## CC(C)N(C(=O)n1oc(=O)n(CCC2OCCCO2)c1=O)c1ccc(F)cc1F [Compound 502]
pigweed; [3]
  Plant response rating, Redroot pigweed: 9
pigweed; [4]
  Redroot pigweed plant response rating: 9
pigweed; [5]
  Redroot pigweed plant response rating: 10
Sugar beet; [3]
  Plant response rating, Sugarbeets: 0
Sugar beet; [4]
  Sugarbeets plant response rating: 2
Sugar beet; [5]
  Sugarbeets plant response rating: 7
cocklebur; [3]
  Plant response rating, Cocklebur: 0
cocklebur; [4]
  Cocklebur plant response rating: 0
cocklebur; [8]
  Cocklebur plant response rating: 0
cocklebur; [5]
  Cocklebur plant response rating: 9
crabgrass; [3]
  Plant response rating, Crabgrass: 10
crabgrass; [4]
  Crabgrass plant response rating: 10
crabgrass; [5]
  Crabgrass plant response rating: 10
morningglory; [3]
  Plant response rating, Morningglory: 0
morningglory; [4]
  Morningglory plant response rating: 2
morningglory; [5]
  Morningglory plant response rating: 4
Surinam grass; [3]
  Plant response rating, B. signalgrass: 6
Surinam grass; [4]
  B. signalgrass plant response rating: 9
Surinam grass; [8]
  B. signalgrass plant response rating: 10
Surinam grass; [9]
  B. signalgrass plant response rating: 10
corn; [3]
  Plant response rating, Corn: 0
corn; [4]
  Corn plant response rating: 8
corn; [5]
  Corn plant response rating: 9
velvetleaf; [3]
  Plant response rating, Velvetleaf: 0
velvetleaf; [4]
  Velvetleaf plant response rating: 5
velvetleaf; [5]
  Velvetleaf plant response rating: 8
blackgrass; [3]
  Plant response rating, Blackgrass: 10
blackgrass; [4]
  Blackgrass plant response rating: 10
blackgrass; [8]
  Blackgrass plant response rating: 10
blackgrass; [5]
  Blackgrass plant response rating: 10
rape; [3]
  Plant response rating, Rape: 2
rape; [4]
  Rape plant response rating: 3
rape; [5]
  Rape plant response rating: 9
Purple nutsedge; [3]
  Plant response rating, Nutsedge: 0
Giant foxtail; [3]
  Plant response rating, Giant foxtail: 10
Giant foxtail; [4]
  Giant foxtail plant response rating: 10
Giant foxtail; [5]
  Giant foxtail plant response rating: 10
Wild oat; [3]
  Plant response rating, Wild oats: 9
Wild oat; [4]
  Wild oats plant response rating: 9
Wild oat; [5]
  Wild oats plant response rating: 10
soybean; [3]
  Plant response rating, Soybean: 0
soybean; [4]
  Soybean plant response rating: 4
soybean; [5]
  Soybean plant response rating: 5
wheat; [3]
  Plant response rating, Wheat: 0
wheat; [4]
  Wheat plant response rating: 3
wheat; [5]
  Wheat plant response rating: 7
bedstraw; Preemergence, Rate 62 g/ha
  Plant response rating, Bedstraw: 10
bedstraw; [8]
  Bedstraw plant response rating: 10
bedstraw; [9]
  Bedstraw plant response rating: 10
